The values that follow come from patent US12435066B2, “Substituted tricyclic compounds” (LUPIN LIMITED, priority 2019, dated 2025).

For one assay, the system named is pERK in DLD1 cells. Put plainly: ERK phosphorylation assay after EGF stimulation. As to conditions: Homo sapiens, DLD-1, compound 2 h, 200 ng/ml hEGF 5 minutes, alphascreen pERK, read-out: ERK phosphorylation inhibition IC50. The assay is classed as cell-based. An outline of the steps:
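DLD1 cells pretreated 2 h with compound, then stimulated 5 minutes with 200 ng/ml hEGF. Lysates assayed for ERK1/2 p-T202/Y204 by AlphaScreen SureFire, read after 2 h at 25-28° C.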
Background: Bead proximity is the source of the signal in Alpha formats.

Assay [1] addresses T1, hSOS1 mediated nucleotide exchange on hKRASG12C (Homo sapiens, UniProt Q07889).
T1 sequence (Q07889 564-1049): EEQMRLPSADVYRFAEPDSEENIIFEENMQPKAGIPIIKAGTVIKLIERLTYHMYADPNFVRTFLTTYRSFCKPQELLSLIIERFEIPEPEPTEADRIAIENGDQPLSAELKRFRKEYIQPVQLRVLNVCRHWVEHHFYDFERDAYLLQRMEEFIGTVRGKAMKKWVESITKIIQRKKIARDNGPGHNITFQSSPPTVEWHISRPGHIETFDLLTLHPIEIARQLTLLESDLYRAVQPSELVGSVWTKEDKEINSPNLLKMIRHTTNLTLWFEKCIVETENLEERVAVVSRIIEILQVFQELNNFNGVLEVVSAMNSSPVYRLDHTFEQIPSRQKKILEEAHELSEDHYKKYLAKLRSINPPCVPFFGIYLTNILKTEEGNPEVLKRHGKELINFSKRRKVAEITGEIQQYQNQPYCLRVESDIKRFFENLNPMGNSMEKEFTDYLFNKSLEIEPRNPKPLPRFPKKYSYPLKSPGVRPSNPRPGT
Put plainly: biochemical.
Method: Example-127: Guanine Nucleotide Exchange Assay (GNEA)
GNEA assay was conducted to evaluate the effects of compounds on the nucleotide exchange on hKRASG12C mediated by hSOS1. Inhibitory effect of compounds on HIS-hSOS1, 564-1049aa mediated GTP loading onto GST-hKRASG12C, 1-169aa both expressed and purified in-house was assessed using HTRF detection technology in biochemical assay. Compounds were pre-incubated with hSOS1 working solution containing 10-50 nM hSOS1 and 200 nM EDA-GTP-DY-647P1 (Custom manufactured, Jena Biosciences) per well of a 384 well plate (Perkin Elmer, Cat #6007290) for 10 min at 20° C. in the assay buffer containing 10 mM HEPES, pH 7.4, 150 mM NaCl, 5 mM MgCl2, 1 mM DTT, 0.05% BSA fraction V and 0.0025% Igepal. Reaction was initiated by adding working solution of hKRASG12C containing 25-125 nM hKRASG12C and MAb Anti-GST-Tb (#61GSTTLA, Cisbio BioAssays) in assay buffer. Total assay volume was 15 μL. Reaction was continued for 30-60 min at 20° C. HTRF signal was recorded in PHERAStar microplate reader. Ratio of signal obtained at 665 nm and 620 nm was used to compute the percent inhibition of compound as follows.
Where, Positive control=hSOS1+EDA-GTP-DY-647P1+hKRASG12C+MAb Anti-GST-Tb Negative control=EDA-GTP-DY-647P1+hKRASG12C+MAb Anti-GST-Tb

In a further assay the test system is DLD-1 cell line. Put plainly: Colony formation assay (single agent activity). The assay is classed as cell-based. As to conditions: Homo sapiens, 168 h, 7 days of drug treatment, crystal violet. As to the method: Example-129: Colony Formation Assay Protocol (Single Agent Activity)
DLD-1/MIA PaCa-2 cells were seeded at a density of 300/500 cells per well respectively in 48 well tissue culture plate and cells were allowed to settle overnight (16 to 20 h). On the following day, cells were treated with different concentrations of test or reference compound and the assay plates were incubated under standard cell culture conditions (37° C. with 5% CO2). After 7 days of drug treatment, media was removed from each well and plates were washed with PBS. Colonies were stained with crystal violet solution for 2-5 min. Plate was then washed carefully under tap water and air dried. For quantitation, 200 μL destaining solution containing 10% Glacial acetic acid was added to each well and crystal violet from the colonies was allowed to solubilize for 20-30 min on plate shaker. After solubilization, absorbance of the extracted stain was recorded in BioTek Synergy Neo II plate reader at 590 nm. Absorbance values were directly proportional to colony growth.

In a further assay the target is T2, hSOS1 and hKRASG12C (Homo sapiens, UniProt Q07889).
T2 sequence (Q07889 564-1049): T1 sequence (Q07889 564-1049)
The assay is described as follows: biochemical.

Assay [2] concerns MIA PaCa-2 human pancreatic cancer xenograft. Put plainly: Tumor growth inhibition in subchronic xenograft model. The class given is in vivo. As to conditions: MIA PaCa-2 xenograft in nude mice, 50 mg/kg b.i.d. As to the method: In vivo efficacy of compound 87 was evaluated in MIA PaCa-2 human pancreatic cancer xenograft model in nude mice.
20×10^6 MIA PaCa-2 cells were injected subcutaneously in the presence of PBS and matrigel in 1:1 ratio in nude mice. The tumor-bearing mice were randomized once the tumors reached an average volume of approximately 154-159 mm^3 (Tumor volume range 107-248 mm^3). The mice were divided into the following groups (n=7-8/group): Vehicle control and compound 87 (50 mg/kg; b.i.d.).

Molecules are shown by their SMILES.

As usually defined, the IC50 is the concentration that gives 50% inhibition. For the compound `Cc1nc(N[C@H](C)c2cc(N)cc(C(F)(F)F)c2)c2cc(-c3ccc(=O)n(C)c3)c3c(c2n1)CCC3` [Compound 87, (R)-5-(4-((1-(3-amino-5-(trifluoromethyl)phenyl)ethyl)amino)-2-methyl-8,9-dihydro-7H-cyclopenta[h]quinazolin-6-yl)-1-methylpyridin-2(1H)-one], the IC50 lay within 1 to 200 nM in the assay on pERK in DLD1 cells; 31 to 70 nM in assay [1]; 500 to 6000 nM with DLD-1 cell line; 1 to 10 nM on hSOS1 and hKRASG12C. In assay [2], the “% tumor growth inhibition” value is given as “more than 70%”.
Take `Cc1nc(N[C@H](C)c2cccc(C(F)(F)[C@](C)(O)CO)c2F)c2cc(N3CCOCC3)c3c(c2n1)CCC3` (racemic) [Compound 82a, (R/S)-3,3-difluoro-3-(2-fluoro-3-((R/S)-1-((2-methyl-6-morpholino-8,9-dihydro-7H-cyclopenta[h]quinazolin-4-yl)amino)ethyl)phenyl)-2-methylpropane-1,2-diol]: the IC50 in the assay with pERK in DLD1 cells lay within 1 to 200 nM; in assay [1], 1 to 30 nM; with DLD-1 cell line, 500 to 6000 nM; on hSOS1 and hKRASG12C, 1 to 10 nM.
In the case of `Cc1nc(N[C@H](C)c2cccc(C(F)(F)C(C)(C)O)c2F)c2cc(N3CCOCC3)c3c(c2n1)CCC3` [Compound 59, (R)-1,1-difluoro-1-(2-fluoro-3-(1-((2-methyl-6-morpholino-8,9-dihydro-7H-cyclopenta[h]quinazolin-4-yl)amino)ethyl)phenyl)-2-methylpropan-2-ol], the concentration for half-maximal inhibition (IC50) in the assay with pERK in DLD1 cells lay in the range of 1 to 200 nM; in assay [1], 1 to 30 nM; against hSOS1 and hKRASG12C, 1 to 10 nM.
For `Cc1nc(N[C@H](C)c2cc(N)cc(C(F)(F)F)c2)c2cc(N3CCN(C)C(=O)C3)c3c(c2n1)CCC3` [Compound 56, (R)-4-(4-((1-(3-amino-5-(trifluoromethyl)phenyl)ethyl)amino)-2-methyl-8,9-dihydro-7H-cyclopenta[h]quinazolin-6-yl)-1-methylpiperazin-2-one], in that order: 1 to 200 nM, 1 to 30 nM and 1 to 10 nM.
For the compound `Cc1nc(N[C@H](C)c2cccc(C(F)(F)[C@@H](C)O)c2F)c2cc(N3CC4(COC4)C3)c3c(c2n1)CCC3` (single isomer, unassigned) [Compound 73b], the IC50 with pERK in DLD1 cells was in the range of 1 to 200 nM; in assay [1], 1 to 30 nM; on hSOS1 and hKRASG12C, 1 to 10 nM.
For `Cc1nc(N[C@H](C)c2cccc(C(F)(F)CO)c2F)c2cc(N3CC[C@H](O)C3)c3c(c2n1)CCC3` [Compound 22, (S)-1-(4-(((R)-1-(3-(1,1-difluoro-2-hydroxyethyl)-2-fluorophenyl)ethyl)amino)-2-methyl-8,9-dihydro-7H-cyclopenta[h]quinazolin-6-yl)pyrrolidin-3-ol], in that order: 1 to 200 nM, 1 to 30 nM and 1 to 10 nM.
The corresponding values for `COC[C@H]1CN(c2cc3c(N[C@H](C)c4cccc(C(F)(F)CO)c4F)nc(C)nc3c3c2CCC3)CCO1` [Compound 35, 2,2-difluoro-2-(2-fluoro-3-((R)-1-((6-((R)-2-(methoxymethyl)morpholino)-2-methyl-8,9-dihydro-7H-cyclopenta[h]quinazolin-4-yl)amino)ethyl)phenyl)ethan-1-ol] are 1 to 200 nM, 1 to 30 nM and 1 to 10 nM.
The corresponding values for `COCC1(O)CCN(c2cc3c(N[C@H](C)c4cccc(C(F)(F)C(C)O)c4F)nc(C)nc3c3c2CCC3)CC1` (single isomer, unassigned) [Compound 72a] are 1 to 200 nM, 1 to 30 nM and 1 to 10 nM.
As for `Cc1nc(N[C@H](C)c2cc(N)cc(C(F)(F)F)c2)c2cc(N3CCOCC3)c3c(c2n1)CC(C)(C)O3` [Compound 113, (R)—N-(1-(3-amino-5-(trifluoromethyl)phenyl)ethyl)-2,8,8-trimethyl-6-morpholino-8,9-dihydrofuro[2,3-h]quinazolin-4-amine], the IC50 lay within 1 to 200 nM with pERK in DLD1 cells; 1 to 30 nM in assay [1]; 1 to 10 nM at hSOS1 and hKRASG12C.
The corresponding values for `Cc1nc(N[C@H](C)c2cccc(C(F)(F)[C@@](C)(O)CO)c2F)c2cc(N3CCOCC3)c3c(c2n1)CCC3` (racemic) [Compound 82b, (S/R)-3,3-difluoro-3-(2-fluoro-3-((S/R)-1-((2-methyl-6-morpholino-8,9-dihydro-7H-cyclopenta[h]quinazolin-4-yl)amino)ethyl)phenyl)-2-methylpropane-1,2-diol] are 1 to 200 nM, 1 to 30 nM and 1 to 10 nM.
The corresponding values for `Cc1nc(N[C@H](C)c2cccc(C(F)(F)C(C)(C)O)c2F)c2cc(N3CCC(C)(CO)CC3)c3c(c2n1)CCC3` [Compound 60, (R)-1,1-difluoro-1-(2-fluoro-3-(1-((6-(4-(hydroxymethyl)-4-methylpiperidin-1-yl)-2-methyl-8,9-dihydro-7H-cyclopenta[h]quinazolin-4-yl)amino)ethyl)phenyl)-2-methylpropan-2-ol] are 1 to 200 nM, 1 to 30 nM and 1 to 10 nM.
For `Cc1nc(N[C@H](C)c2cccc(C(F)(F)CO)c2F)c2cc(N3CCOCC3)c3c(c2n1)CCC3` [Compound 75, (R)-2,2-difluoro-2-(2-fluoro-3-(1-((2-methyl-6-morpholino-8,9-dihydro-7H-cyclopenta[h]quinazolin-4-yl)amino)ethyl)phenyl)ethan-1-ol], the half-maximal inhibitory concentration (IC50) with pERK in DLD1 cells lay within 1 to 200 nM; in assay [1] it was 1 to 30 nM; against hSOS1 and hKRASG12C, 1 to 10 nM.
The corresponding values for `COCC(F)(F)c1cccc([C@@H](C)Nc2nc(C)nc3c4c(c(N5CC6(COC6)C5)cc23)CCC4)c1F` [Compound 24, (R)—N-(1-(3-(1,1-difluoro-2-methoxyethyl)-2-fluorophenyl)ethyl)-2-methyl-6-(2-oxa-6-azaspiro[3.3]heptan-6-yl)-8,9-dihydro-7H-cyclopenta[h]quinazolin-4-amine] are 1 to 200 nM, 31 to 70 nM and 1 to 10 nM.
With `Cc1nc(N[C@H](C)c2cccc(C(F)(F)CO)c2F)c2cc(N3CC4(COC4)C3)c3c(c2n1)CCC3` [Compound 23, (R)-2,2-difluoro-2-(2-fluoro-3-(1-((2-methyl-6-(2-oxa-6-azaspiro[3.3]heptan-6-yl)-8,9-dihydro-7H-cyclopenta[h]quinazolin-4-yl)amino)ethyl)phenyl)ethan-1-ol], the IC50 is 1 to 200 nM in the assay with pERK in DLD1 cells; 1 to 30 nM in assay [1]; 1 to 10 nM against hSOS1 and hKRASG12C.
On to `Cc1nc(N[C@H](C)c2cccc(C(F)(F)C(C)(C)O)c2F)c2cc(N3CCC(O)CC3)c3c(c2n1)CCC3` [Compound 65, (R)-1-(4-((1-(3-(1,1-difluoro-2-hydroxy-2-methylpropyl)-2-fluorophenyl)ethyl)amino)-2-methyl-8,9-dihydro-7H-cyclopenta[h]quinazolin-6-yl)piperidin-4-ol], for which the IC50 in the assay on pERK in DLD1 cells fell in the range of 1 to 200 nM; in assay [1], 1 to 30 nM; on hSOS1 and hKRASG12C it was 1 to 10 nM.
